# Assay results published in US9409952B2, “Peptide-compound cyclization method” (Chugai Seiyaku Kabushiki Kaisha, priority 2011, dated 2016).
# Read-outs that look alike come from different tables or passages of the source. Positions of bridges follow the written chain, without caps; N, C: chain ends. Non-standard residues stand in square brackets, D forms with d. Residues, ends and D or L forms follow the SMILES beside them. *: point of attachment. NMeF = CN[C@@H](Cc1ccccc1)C(=O)O; NMeI = CC[C@H](C)[C@H](NC)C(=O)O; NMeL = CN[C@@H](CC(C)C)C(=O)O; NMeV = CN[C@H](C(=O)O)C(C)C; NMeA = CN[C@@H](C)C(=O)O; Piperidide = C1CCN(*)CC1; Sar = CNCC(=O)O; tBu = CC(C)(C)*
# Test: Metabolic stability in human hepatic microsome
# Assay type: in vitro ADME
# Details: for microsomal CLint at 1 uM: human
# [1] = microsomes, pH 7.4, Hepatic microsome CLhint (Human) In the presence of NADPH
# [2] = microsomes, pH 7.4, CL NADPH(+)
compound,measurement,setting,value
"CC(C)C[C@H]1C(=O)N[C@@H](COC(C)(C)C)C(=O)N[C@H](C(=O)N2CCCCC2)CC(=O)N[C@@H](C)C(=O)N(C)[C@@H](C)C(=O)N(C)[C@@H](Cc2ccccc2)C(=O)N(C)[C@@H](CC(C)C)C(=O)N[C@@H]([C@@H](C)O)C(=O)N(C)CC(=O)N1C [Compound P-119, Ala-MeAla-MePhe-MeLeu-Thr-MeGly-MeLeu-Ser(tBu)-Asp-piperidine] (A[NMeA][NMeF][NMeL]T[Sar][NMeL]S(tBu)D-Piperidide; lactam N-9)",Hepatic microsome CLhint (Human) In the absence of NADPH,,5 ul/min/mg Protein
same,microsomal CLint at 1 uM,[1],56 µL/min/mg
"CC(C)C[C@H]1C(=O)N[C@@H](COC(C)(C)C)C(=O)N[C@H](C(=O)N2CCCCC2)CC(=O)N(C)[C@@H](C)C(=O)N(C)[C@@H](C)C(=O)N(C)[C@@H](Cc2ccccc2)C(=O)N(C)[C@@H](CC(C)C)C(=O)N[C@@H]([C@@H](C)O)C(=O)N(C)CC(=O)N1C [Compound P-120, MeAla-MeAla-MePhe-MeLeu-Thr-MeGly-MeLeu-Ser(tBu)-Asp-piperidine] ([NMeA][NMeA][NMeF][NMeL]T[Sar][NMeL]S(tBu)D-Piperidide; lactam N-9)",Hepatic microsome CLhint (Human) In the absence of NADPH,,5 ul/min/mg Protein
"CC(C)C[C@H]1C(=O)N[C@@H](COC(C)(C)C)C(=O)N[C@H](C(=O)N2CCCCC2)CCC(=O)N[C@@H](C)C(=O)N(C)[C@@H](C)C(=O)N(C)[C@@H](Cc2ccccc2)C(=O)N(C)[C@@H](CC(C)C)C(=O)N[C@@H]([C@@H](C)O)C(=O)N(C)CC(=O)N1C [Compound P-121, Ala-MeAla-MePhe-MeLeu-Thr-MeGly-MeLeu-Ser(tBu)-Glu-piperidine] (A[NMeA][NMeF][NMeL]T[Sar][NMeL]S(tBu)E-Piperidide; lactam N-9)",Hepatic microsome CLhint (Human) In the absence of NADPH,,8 ul/min/mg Protein
same,Hepatic microsome CLhint (Human) In the presence of NADPH,,69 ul/min/mg Protein
same,microsomal CLint at 1 uM,"liver microsomes, pH 7.4, Hepatic microsome CLhint (Human) In the presence of NADPH",29 µL/min/mg
"CC(C)C[C@H]1C(=O)N[C@@H](COC(C)(C)C)C(=O)N[C@H](C(=O)N2CCCCC2)CCC(=O)N(C)[C@@H](C)C(=O)N(C)[C@@H](C)C(=O)N(C)[C@@H](Cc2ccccc2)C(=O)N(C)[C@@H](CC(C)C)C(=O)N[C@@H]([C@@H](C)O)C(=O)N(C)CC(=O)N1C [Compound P-122, MeAla-MeAla-MePhe-MeLeu-Thr-MeGly-MeLeu-Ser(tBu)-Glu-piperidine] ([NMeA][NMeA][NMeF][NMeL]T[Sar][NMeL]S(tBu)E-Piperidide; lactam N-9)",Hepatic microsome CLhint (Human) In the absence of NADPH,,1 ul/min/mg Protein
same,microsomal CLint at 1 uM,[1],11 µL/min/mg
"CC[C@H](C)[C@H]1C(=O)N[C@H](C(=O)N2CCCCC2)CC(=O)N[C@@H](C)C(=O)N(C)[C@@H](Cc2ccccc2)C(=O)N(C)[C@@H](CC(C)C)C(=O)N[C@@H]([C@@H](C)O)C(=O)N(C)CC(=O)N(C)[C@@H](CC(C)C)C(=O)N[C@@H](COC(C)(C)C)C(=O)N1C [Compound P-123, Ala-MePhe-MeLeu-Thr-MeGly-MeLeu-Ser(tBu)-MeIle-Asp-piperidine] (A[NMeF][NMeL]T[Sar][NMeL]S(tBu)[NMeI]D-Piperidide; lactam N-9)",Hepatic microsome CLhint (Human) In the absence of NADPH,,0 ul/min/mg Protein
same,microsomal CLint at 1 uM,[1],106 µL/min/mg
"CC[C@H](C)[C@H]1C(=O)N[C@H](C(=O)N2CCCCC2)CC(=O)N[C@@H](C)C(=O)N(C)[C@@H](C)C(=O)N(C)[C@@H](Cc2ccccc2)C(=O)N(C)[C@@H](CC(C)C)C(=O)N[C@@H]([C@@H](C)O)C(=O)N(C)CC(=O)N(C)[C@@H](CC(C)C)C(=O)N[C@@H](COC(C)(C)C)C(=O)N1C [Compound P-125, Ala-MeAla-MePhe-MeLeu-Thr-MeGly-MeLeu-Ser(tBu)-MeIle-Asp-piperidine] (A[NMeA][NMeF][NMeL]T[Sar][NMeL]S(tBu)[NMeI]D-Piperidide; lactam N-10)",Hepatic microsome CLhint (Human) In the absence of NADPH,,1 ul/min/mg Protein
same,Hepatic microsome CLhint (Human) In the presence of NADPH,"Table 10, with NADPH",35 ul/min/mg Protein
CC[C@H](C)[C@H]1C(=O)N[C@@H](Cc2ccccc2)C(=O)N(C)[C@@H](Cc2ccccc2)C(=O)N[C@@H]([C@@H](C)O)C(=O)N2CCC[C@H]2C(=O)N[C@@H](CC(C)C)C(=O)N[C@H](C(=O)N2CCCCC2)CC(=O)N[C@@H](C)C(=O)N[C@@H](C(C)C)C(=O)N(C)CC(=O)N[C@@H](CC(C)C)C(=O)N(C)[C@@H](CC(C)C)C(=O)N[C@@H](C)C(=O)N1C [DP-1] (AV[Sar]L[NMeL]A[NMeI]F[NMeF]TPLD-Piperidide; lactam N-13),microsomal CLint at 1 uM,[2],27 µL/min/mg
CC[C@H](C)[C@H]1C(=O)N[C@@H](C)C(=O)N(C)[C@@H](Cc2ccccc2)C(=O)N(C)[C@@H](Cc2ccccc2)C(=O)N[C@@H]([C@@H](C)O)C(=O)N(C)[C@@H](CC(C)C)C(=O)N2CCC[C@H]2C(=O)N[C@H](C(=O)N2CCCCC2)CC(=O)N[C@@H](C)C(=O)N[C@@H](C(C)C)C(=O)N(C)[C@@H](CC(C)C)C(=O)N(C)CC(=O)N(C)[C@@H](CC(C)C)C(=O)N1C [DP-2] (AV[NMeL][Sar][NMeL][NMeI]A[NMeF][NMeF]T[NMeL]PD-Piperidide; lactam N-13),microsomal CLint at 1 uM,[2],7 µL/min/mg
CC[C@H](C)[C@H]1C(=O)N[C@@H](C)C(=O)N[C@H](C(=O)N2CCCCC2)CC(=O)N[C@@H](C)C(=O)N[C@@H]([C@@H](C)O)C(=O)N(C)[C@@H](CC(C)C)C(=O)N[C@@H](CC(C)C)C(=O)N[C@@H](Cc2ccccc2)C(=O)N2CCC[C@H]2C(=O)N[C@@H](Cc2ccccc2)C(=O)N[C@@H](C(C)C)C(=O)N(C)CC(=O)N1C [DP-6] (AT[NMeL]LFPFV[Sar][NMeI]AD-Piperidide; lactam N-12),microsomal CLint at 1 uM,[2],35 µL/min/mg
CC[C@H](C)[C@H]1C(=O)N(C)[C@@H](CC(C)C)C(=O)NCC(=O)N(C)[C@@H](C)C(=O)N[C@@H](Cc2ccccc2)C(=O)N[C@@H]([C@@H](C)O)C(=O)N(C)[C@@H](CC(C)C)C(=O)N[C@@H](Cc2ccccc2)C(=O)N(C)[C@@H](C(C)C)C(=O)N[C@H](C(=O)N2CCCCC2)CC(=O)N[C@@H](C)C(=O)N[C@@H](CC(C)C)C(=O)N1C [DP-8] (AL[NMeI][NMeL]G[NMeA]FT[NMeL]F[NMeV]D-Piperidide; lactam N-12),microsomal CLint at 1 uM,[2],36 µL/min/mg
CC[C@H](C)[C@@H]1NC(=O)[C@H](C)NC(=O)C[C@@H](C(=O)N2CCCCC2)NC(=O)[C@H](CC(C)C)N(C)C(=O)[C@H](CC(C)C)N(C)C(=O)[C@H](C(C)C)NC(=O)[C@H](C)NC(=O)[C@H](Cc2ccccc2)N(C)C(=O)[C@H](Cc2ccccc2)N(C)C(=O)[C@H]([C@@H](C)O)NC(=O)[C@H](CC(C)C)N(C)C(=O)[C@@H]2CCCN2C1=O [DP-10] (AIP[NMeL]T[NMeF][NMeF]AV[NMeL][NMeL]D-Piperidide; lactam N-12),microsomal CLint at 1 uM,[2],14 µL/min/mg
CC[C@H](C)[C@H]1C(=O)N(C)[C@@H](C)C(=O)N[C@H](C(=O)N2CCCCC2)CC(=O)N[C@@H](C)C(=O)N[C@@H]([C@@H](C)O)C(=O)N(C)[C@@H](Cc2ccccc2)C(=O)N(C)[C@@H](CC(C)C)C(=O)N[C@@H](C(C)C)C(=O)N2CCC[C@H]2C(=O)N(C)[C@@H](Cc2ccccc2)C(=O)N[C@@H](CC(C)C)C(=O)N(C)CC(=O)N1C [DP-11] (AT[NMeF][NMeL]VP[NMeF]L[Sar][NMeI][NMeA]D-Piperidide; lactam N-12),microsomal CLint at 1 uM,[2],67 µL/min/mg
CC[C@H](C)[C@@H]1NC(=O)[C@H](Cc2ccccc2)N(C)C(=O)[C@H](Cc2ccccc2)N(C)C(=O)[C@H](CC(C)C)N(C)C(=O)[C@H](CC(C)C)NC(=O)[C@H](CC(C)C)N(C)C(=O)[C@H](C)N(C)C(=O)[C@H]([C@@H](C)O)NC(=O)[C@H](C)NC(=O)C[C@@H](C(=O)N2CCCCC2)NC(=O)[C@H](C(C)C)N(C)C(=O)[C@@H]2CCCN2C1=O [DP-12] (AT[NMeA][NMeL]L[NMeL][NMeF][NMeF]IP[NMeV]D-Piperidide; lactam N-12),microsomal CLint at 1 uM,[2],32 µL/min/mg
CC[C@H](C)[C@@H]1NC(=O)[C@H](C)NC(=O)C[C@@H](C(=O)N2CCCCC2)NC(=O)[C@H](Cc2ccccc2)NC(=O)[C@H](C(C)C)NC(=O)[C@H](CC(C)C)NC(=O)[C@H](C)NC(=O)[C@H](Cc2ccccc2)N(C)C(=O)[C@H]([C@@H](C)O)NC(=O)[C@H](CC(C)C)NC(=O)[C@H](CC(C)C)N(C)C1=O [DP-13] (AI[NMeL]LT[NMeF]ALVFD-Piperidide; lactam N-11),microsomal CLint at 1 uM,[2],66 µL/min/mg
CC[C@H](C)[C@@H]1NC(=O)[C@H](Cc2ccccc2)N(C)C(=O)[C@H](Cc2ccccc2)NC(=O)[C@H](C(C)C)N(C)C(=O)[C@H](CC(C)C)N(C)C(=O)[C@H](CC(C)C)NC(=O)[C@H](C)NC(=O)C[C@@H](C(=O)N2CCCCC2)NC(=O)[C@H]([C@@H](C)O)NC(=O)CNC(=O)[C@@H]2CCCN2C1=O [DP-14] (AL[NMeL][NMeV]F[NMeF]IPGTD-Piperidide; lactam N-11),microsomal CLint at 1 uM,[2],57 µL/min/mg
CC[C@H](C)[C@H]1C(=O)N2CCC[C@H]2C(=O)N(C)CC(=O)N[C@@H]([C@@H](C)O)C(=O)N[C@H](C(=O)N2CCCCC2)CC(=O)N[C@@H](C)C(=O)N[C@@H](C(C)C)C(=O)N(C)[C@@H](CC(C)C)C(=O)N(C)[C@@H](CC(C)C)C(=O)N(C)[C@@H](Cc2ccccc2)C(=O)N[C@@H](Cc2ccccc2)C(=O)N1C [DP-15] (AV[NMeL][NMeL][NMeF]F[NMeI]P[Sar]TD-Piperidide; lactam N-11),microsomal CLint at 1 uM,[2],34 µL/min/mg
CC[C@H](C)[C@@H]1NC(=O)[C@H](Cc2ccccc2)NC(=O)[C@H](C)NC(=O)C[C@@H](C(=O)N2CCCCC2)NC(=O)[C@H](CC(C)C)NC(=O)[C@H](CC(C)C)NC(=O)[C@H](C(C)C)NC(=O)[C@H](C)N(C)C(=O)[C@H](Cc2ccccc2)NC(=O)CNC(=O)[C@H]([C@@H](C)O)NC(=O)[C@H](CC(C)C)NC(=O)[C@@H]2CCCN2C1=O [DP-19] (AFIPLTGF[NMeA]VLLD-Piperidide; lactam N-13),microsomal CLint at 1 uM,[2],80 µL/min/mg
CC[C@H](C)[C@@H]1NC(=O)[C@H](C)NC(=O)[C@H](CC(C)C)N(C)C(=O)[C@H](CC(C)C)NC(=O)[C@H](Cc2ccccc2)NC(=O)[C@H](C(C)C)NC(=O)[C@@H]2CCCN2C(=O)[C@H](CC(C)C)NC(=O)[C@H](Cc2ccccc2)N(C)C(=O)[C@H]([C@@H](C)O)NC(=O)CNC(=O)[C@H](C)NC(=O)C[C@@H](C(=O)N2CCCCC2)NC1=O [DP-20] (AGT[NMeF]LPVFL[NMeL]AID-Piperidide; lactam N-13),microsomal CLint at 1 uM,[2],97 µL/min/mg
